Laboratory results reported in patent US5116877A, “Pharmaceutical use for cinnamamide derivatives” (Taisho Pharmaceutical Co., Ltd., priority 1989, dated 1992).

Experiments:
[1] = test system: mesocephalous decerebrate rididity; assay: Inhibition test of the mesocephalous decerebrate rigidity; assay type: in vivo, male Wistar rats; conditions: rat
Description: Experiment 1 [Inhibition test of the mesocephalous decerebrate rididity]
The rigidity animals were prepared according to the method of Ono et al [Gen. Pharm., vol. 18, page 57-59 (1987)].
Four male Wistar rats weighing 250 to 350 g were used for each group. The animals were anesthetized with ethyl ether and fixed on a brain stereotaxic apparatus to break the midbrain bilaterally (APO, V-3, L ±1.5). The advanced rigidity occurred in the hind limb with awaking from the ethyl ether anesthesia. The test drugs [A; (E)-N-cyclopropyl-3-(3-chlorophenyl)-2-butenamide, B; (E)-N-cyclopropyl-3-(3-fluorophenyl)-2-butenamide and C; cinflumide] dissolved in propylene glycol were each administered intravenously in the amount of 5 mg/kg or 10 mg/kg (0.1 ml per 100 g of rat), and these test drugs suspended in 0.4% aqueous carboxymethylcellulose solution were each administered intraduodenally in the amount of 50 mg/kg (0.1 ml per 100 g of rat) to determine the inhibition time of the rigidity.

[2] = test system: Anemic Decerebrate rigidity; assay: Inhibition of anemic decerebrate rigidity; assay type: in vivo, male Wistar rats; conditions: rat, in polyethylene glycol 400
Description: Experiment 2[Inhibition of Anemic Decerebrate rigidity]
The rigidity animals were prepared according to the method of Fukuda et al [Japan J. Pharmacol., vol. 24, page 810-813 (1974)].
Four male Wistar rats weighing 250 to 350 g were used for each group.
The animals were anesthetized with ethyl ether and carotid artery was ligated bilaterally. A round hole was digged in the suboccipital skeleton and the basal artery was coagulated using a bipolar electrocoagulator. The advanced rigidity occurred on the fore limb with awaking from the ethyl ether anesthesia. The drugs [A; (E)-N-cyclopropyl-3-(3-chlorophenyl)-2-butenamide, B; (E)-N-cyclopropyl-3-(3-fluorophenyl)-2-butenamide, and C; cinflumide] dissolved in polyethylene glycol 400 were each administered intravenously in the amount of 5 mg/kg or 10 mg/kg (0.1 ml per 100 g of rat) to determine the inhibition time of the rigidity.

Straub tail reaction = Straub tail reaction (morphine-induced); assay type: in vivo, male ICR mice; conditions: mouse, morphine hydrochloride 15 mg/kg s.c.
Description: Experiment 3 [Straub tail reaction]
Test was carried out according to the method of Ellis et al [Neuropharmacology, vol. 13, page 211 to (1974)].
Six male ICR mice weighing 20-30 g were used as the animals for each group. The drugs [A; (E)-N-cyclopropyl-3-(3-chlorophenyl)-2-butenamide, and C; cinflumide] suspended in 0.4% aqueous carboxymethylcellulose solution were each administered orally to the animals in the amounts of 50, 70.7, 100 and 140 mg/kg (0.1 ml per 10 g of mouse). After 15 minutes, 15 mg/kg of morphine hydrochloride were administered subcutaneously. After 30 minutes, the tail-raising reaction was determined. The muscle relaxation activity was judged as positive in case where the drug produces the value of less than 45 degrees of the tail-raising's angle, and the inhibition rate was culculated.

[3] = test system: spontaneous motor activity; assay: Spontaneous motor activity test; assay type: in vivo, male ICR mice; conditions: mouse
Description: Experiment 4 [Spontaneous motor activity test]
Six male ICR mice weighing 20-30 g were used as the test animals for each group. The test drugs [A: (E)-N-cyclopropyl-3-(3 chlorophenyl)-2-butenamide and B: (E)-N-cyclopropyl-3-(3-fluorophenyl)-2-butenamide] suspended in 0.4% aqueous carboxymethylcellulose solution were each administered orally to mice in the amounts of 50, 70.7 and 100 mg/kg (0.1 ml per 10 g of mouse). The control group were administered with 0.4% aqueous carboxymethylcellulose solution only. After 15 minute, mice were placed in ANIMEX apparatus (manufactured by Muromachi Kikai K.K.) to determine the spontaneous moter activity for 30 minutes

Acute toxicity test = assay type: in vivo, male ICR mice; conditions: mouse
Description: Experiment 5 [Acute toxicity test]
Ten male ICR mice weighing 25 to 34 g were used. (E)-N-cyclopropyl-3-(3-chlorophenyl)-2-butenamide suspended in 0.4% aqueous carboxymethylcellulose solution was each administered orally to mice in the amount of 0.1 ml per 10 g of mice. […] The LD50 values were more than 1 g/kg p.o.

[4] = J. Med. Chem., vol. 9 (No. 5), 675-681 (1966); cited from earlier work
[5] = Japanese Patent Publication No. 60-56700; among known cinnamamide derivatives; cited from earlier work
[6] = 5 mg/kg i.v., in propylene glycol
[7] = 10 mg/kg i.v., in propylene glycol
[8] = 50 mg/kg i.d., in 0.4% aqueous carboxymethylcellulose
[9] = 50 mg/kg (head: i.v.; text: orally)
[10] = 70.7 mg/kg (head: i.v.; text: orally)
[11] = 100 mg/kg (head: i.v.; text: orally)
[12] = 140 mg/kg (head: i.v.; text: orally)
[13] = 70.7 mg/kg p.o., control of A 2116.0 ± 256.6, of B 2128.7 ± 228.0

SMILES	length of time during which the inhibition action occurs (inhibition time of the rigidity) [1, 6]	length of time during which the inhibition action occurs (inhibition time of the rigidity) [1, 7]	length of time during which the inhibition action occurs (inhibition time of the rigidity) [1, 8]	length of time during which the inhibition occurs (inhibition time of the rigidity) ([2]; 5 mg/kg i.v.)	length of time during which the inhibition occurs (inhibition time of the rigidity) ([2]; 10 mg/kg i.v.)	inhibition rate (Straub tail reaction) (Straub tail reaction; [9])	inhibition rate (Straub tail reaction) (Straub tail reaction; [10])	inhibition rate (Straub tail reaction) (Straub tail reaction; [11])	inhibition rate (Straub tail reaction) (Straub tail reaction; [12])	Spontaneous motor activity ([3]; 50 mg/kg p.o., control of A 2116.0 ± 256.6)	Spontaneous motor activity [3, 13]	death (survivals observed for 7 days) (Acute toxicity test; 1 g/kg p.o.)	LD50 at 168 h (Acute toxicity test; in vivo, po)	sedative or taming action [4]	Spontaneous motor activity ([3]; 100 mg/kg p.o., control of B 2128.7 ± 228.0)	muscle relaxing activity [5]
C/C(=C\C(=O)NC1CC1)c1cccc(Cl)c1 [A, (E)-N-cyclopropyl-3-(3-chlorophenyl)-2-butenamide]	13 min	37 min	36 min	9 min	13 min	40%	40%	100%	100%	1736.0 ± 366.6 Counts/30 minutes	1570.2 ± 326.9 Counts/30 minutes	no death occurred	> 1000 mg/kg	showing sedative or taming action		
C/C(=C\C(=O)NC1CC1)c1cccc(F)c1 [B, (E)-N-cyclopropyl-3-(3-fluorophenyl)-2-butenamide]	6 min	12 min	53 min	8 min	12 min						2264.2 ± 506.0 Counts/30 minutes				1667.8 ± 152.4 Counts/30 minutes	
O=C(/C=C/c1cccc(F)c1)NC1CC1 [C, cinflumide, reference compound]	0 min	3 min	0 min		8 min	0%	20%	80%	100%							most preferred effect
